In US6346535B1, “Fungicidal mixtures” (American Cyanamid Company, priority 1999, dated 2002):
Where two headings read alike, the source gives them in different places.

Key:
Assay type in all cases: in vivo
[1] = test system: Puccinia recondita on wheat; test: Greenhouse trial, 4 day residual, Puccinia recondita on wheat; details: for pest or weed control at 10 ppm: dose rate 10 ppm
Text: (§1) The fungicides are applied in single treatments, or in a combination comprising a benzophenone of formula I and a compound selected from (A) through (E) as defined above. The compounds are applied in form of an aqueous spray mix obtained from a concentrated formulation or the technical material.
(§2) 1. Seed is planted in 6 cm diameter plastic pots and maintained in the greenhouse.
(§3) 2. When the primary leaf is fully expanded (in the case of cereals) or several leaves are present (in the case of dicots), formulated test compounds are sprayed with a three nozzle overhead fungicide sprayer to near run-off. Alternatively, a single nozzle overhead track sprayer is used for application of the compounds to cereals at a rate of 200 liters/ha (l/ha). Plants are then allowed to air-dry.
(§4) 3. Inoculation precedes treatment in the case of curative evaluations and follows treatment in case of residual evaluations. For inoculation of powdery mildew disease, plants are set up on greenhouse benches with bottom watering mats and inoculated by dusting them with conidia from infected plants. Between inoculation and treatment for curative evaluations and between treatment and inoculation for residual evaluations, plants are maintained in the greenhouse with bottom watering. For inoculation of non-powdery mildew diseases, an aqueous spore suspension of the pathogen is applied to the plant and the plants are kept 1-2 days in a moist infection chamber before being returned to the greenhouse where they are maintained by bottom watering.
(§5) 4. Disease on the foliage as percent leaf area with disease symptoms/signs is evaluated about 7 days after inoculation. In the case of wheat, the tips and bases of the leaves are excluded from the evaluation. [formula]
(§6) 1. Technical compounds are formulated in a solvent/surfactant system consisting of 5% acetone and 0.05% Tween 20 in deionized water. Compounds are dissolved in acetone prior to addition of the water; the Tween 20 can be added through either the acetone or the water. Dilutions are made using the solvent/surfactant system. Formulated compounds are prepared using deionized water.
(§7) Assessments of the diseases took place at the indicated day after the application of the compounds. Per cent infected leaf area infected was evaluated. The efficacy of the compounds/compounds mixtures to control the diseases was calculated by using the formula given above under item 4: […]
(§8) Synergy of a fungicide mixture was determined by comparing the actual (observed) fungicidal activity of the mixture to the expected fungicidal activity of the mixture as calculated using the COLBY formula given hereinabove.
Fungicidal Efficacy of the Mixture of BP-4+Other Fungicides (4 Day Residual) Against Puccinia recondita on Wheat
Fungicidal Efficacy of the Mixture of BP-4+Myclobutanil (4 Day Residual) Against Puccinia recondita on Wheat

[2] = test system: Erysiphe cichoracearum on cucumbers; test: Greenhouse trial, 4 day residual, Erysiphe cichoracearum on cucumbers; details: for pest or weed control at 0.4 ppm / pest or weed control at 2 ppm / pest or weed control at 10 ppm / pest or weed control at 50 ppm / pest or weed control at 4 ppm / pest or weed control at 16 ppm / pest or weed control at 64 ppm / pest or weed control at 256 ppm: Golovinomyces cichoracearum, 96 h, read-out: Observed Efficacy
Text: as §1, §2, §3, §4, §5, §6, §7, §8

[3] = test system: Pyrenophora teres on barley; test: Greenhouse trial, 4 day residual, Pyrenophora teres on barley; details: for pest or weed control at 0.4 ppm / pest or weed control at 2 ppm / pest or weed control at 10 ppm / pest or weed control at 50 ppm: Pyrenophora teres, 96 h, read-out: Observed Efficacy
Text: as §1, §2, §3, §4, §5, §6, §7, §8
Fungicidal Efficacy of the Mixture of BP-4+Other Fungicides (4 Day Residual) Against Pyrenophora teres on Barley

[4] = test system: Leptosphaeria nodorum on wheat; test: Greenhouse trial, 4 day residual, Leptosphaeria nodorum on wheat; details: Table VIII, compound alone
Text: as §1, §2, §3, §4, §5, §6, §7, §8
Fungicidal Efficacy of the Mixture of BP-4+Other Fungicides (4 Day Residual) Against Leptosphaeria nodorum on Wheat

[5] = Puccinia recondita, 96 h, Table XV (Example 15), 4 day residual, dose rate 2 ppm, read-out: Observed Efficacy
[6] = Puccinia recondita, 96 h, Table XV (Example 15), 4 day residual, read-out: Observed Efficacy
[7] = Puccinia recondita, 96 h, Table XV (Example 15), 4 day residual, dose rate 50 ppm, read-out: Observed Efficacy
[8] = Table XIV (Example 14), 4 day residual, dose rate 0.4 ppm
[9] = Table XIV (Example 14), 4 day residual, dose rate 2 ppm
[10] = Table XIV (Example 14), 4 day residual, dose rate 10 ppm
[11] = Table XVI (Example 16), 4 day residual, dose rate 0.4 ppm
[12] = Table XVI (Example 16), 4 day residual, dose rate 2 ppm
[13] = Table XVI (Example 16), 4 day residual, dose rate 10 ppm
[14] = Table XVI (Example 16), 4 day residual, dose rate 50 ppm
[15] = Table XV (Example 15), 4 day residual, dose rate 50 ppm
[16] = Puccinia recondita, 96 h, Table XV (Example 15), 4 day residual, dose rate 0.4 ppm, read-out: Observed Efficacy
[17] = Table XIV (Example 14), 4 day residual, dose rate 50 ppm
[18] = Table XIII (Example 13), 4 day residual, dose rate 0.4 ppm
[19] = Table XIII (Example 13), 4 day residual, dose rate 2 ppm
[20] = Table XIII (Example 13), 4 day residual, dose rate 10 ppm
[21] = Table XIII (Example 13), 4 day residual, dose rate 50 ppm
[22] = Puccinia recondita, 96 h, read-out: Observed Efficacy
[23] = Table XI, compound alone, dose rate 0.4 ppm
[24] = Table XI, compound alone, dose rate 2 ppm
[25] = Table XI, compound alone, dose rate 10 ppm
[26] = Table XI, compound alone, dose rate 50 ppm
[27] = Puccinia recondita, 96 h, Table VII, compound alone, dose rate 16 ppm, read-out: Observed Efficacy
[28] = Puccinia recondita, 96 h, Table VII, compound alone, dose rate 64 ppm, read-out: Observed Efficacy
[29] = Puccinia recondita, 96 h, Table VII, compound alone, dose rate 256 ppm, read-out: Observed Efficacy
[30] = Table VI, compound alone, dose rate 4 ppm
[31] = Table VI, compound alone, dose rate 16 ppm
[32] = Table VI, compound alone, dose rate 64 ppm
[33] = Table VI, compound alone, dose rate 256 ppm
[34] = Parastagonospora nodorum, 96 h, dose rate 64 ppm, read-out: Observed Efficacy
[35] = Parastagonospora nodorum, 96 h, dose rate 256 ppm, read-out: Observed Efficacy

## CCCN(CC)CC1COC2(CCC(C(C)(C)C)CC2)O1 (stereo not drawn) [Spiroxamine]
[1]; [5]
  pest or weed control at 2 ppm: 0%
[1]; [6]
  pest or weed control at 10 ppm: 4%
[1]; [7]
  pest or weed control at 50 ppm: 17%
[2]; [8]
  pest or weed control at 0.4 ppm: 0%
[2]; [9]
  pest or weed control at 2 ppm: 0%
[2]; [10]
  pest or weed control at 10 ppm: 2%
[3]; [11]
  pest or weed control at 0.4 ppm: 0%
[3]; [12]
  pest or weed control at 2 ppm: 3%
[3]; [13]
  pest or weed control at 10 ppm: 5%
[3]; [14]
  pest or weed control at 50 ppm: 16%

## Dinocap
[1]; [15]
  Observed Efficacy: 54
[2]; [10]
  Observed Efficacy: 0
[3]; [14]
  Observed Efficacy: 22

## CON=C(Cc1cccnc1)c1ccc(Cl)cc1Cl [Pyrifenox]
[1]; [16]
  pest or weed control at 0.4 ppm: 0%
[1]; [5]
  pest or weed control at 2 ppm: 0%
[1]; [6]
  pest or weed control at 10 ppm: 1%
[1]; [7]
  pest or weed control at 50 ppm: 6%
[2]; [8]
  pest or weed control at 0.4 ppm: 0%
[2]; [9]
  pest or weed control at 2 ppm: 0%
[2]; [10]
  pest or weed control at 10 ppm: 1%
[2]; [17]
  pest or weed control at 50 ppm: 20%
[3]; [11]
  pest or weed control at 0.4 ppm: 0%
[3]; [12]
  pest or weed control at 2 ppm: 0%
[3]; [14]
  pest or weed control at 50 ppm: 15%

## [Cl-].[Cu+2].[Cu+2].[OH-].[OH-].[OH-] [Copper oxychloride]
[3]; [18]
  Observed Efficacy: 0
[3]; [19]
  Observed Efficacy: 0
[3]; [20]
  Observed Efficacy: 14
[3]; [21]
  Observed Efficacy: 14

## Flusilazole [listing 1 of 2 here]
[1]; Table XV (Example 15), 4 day residual, dose rate 0.4 ppm
  Observed Efficacy: 5
[1]; Table XV (Example 15), 4 day residual, dose rate 2 ppm
  Observed Efficacy: 28
[2]; [8]
  Observed Efficacy: 0
[2]; [9]
  Observed Efficacy: 0
[2]; [10]
  Observed Efficacy: 19
[3]; [12]
  Observed Efficacy: 8
[3]; [13]
  Observed Efficacy: 26

## CCCN(CCOc1c(Cl)cc(Cl)cc1Cl)C(=O)n1ccnc1 [Prochloraz]
[1]; [22]
  pest or weed control at 0.4 ppm: 0%
  pest or weed control at 2 ppm: 0%
  pest or weed control at 16 ppm: 1%
  pest or weed control at 50 ppm: 14%
[2]
  pest or weed control at 0.4 ppm: 0%
  pest or weed control at 2 ppm: 0%
  pest or weed control at 10 ppm: 1%
  pest or weed control at 50 ppm: 18%
[3]
  pest or weed control at 0.4 ppm: 8%
  pest or weed control at 2 ppm: 19%
  pest or weed control at 10 ppm: 48%

## Flusilazole [listing 2 of 2 here]
[1]; [15]
  Observed Efficacy: 100
[2]; [17]
  Observed Efficacy: 38
[3]; [14]
  Observed Efficacy: 48

## CC(C1CC1)C(O)(Cn1cncn1)c1ccc(Cl)cc1 (stereo not drawn) [Cyproconazole]
[1]; [16]
  pest or weed control at 0.4 ppm: 88%
[1]; [5]
  pest or weed control at 2 ppm: 99%
[2]; [8]
  pest or weed control at 0.4 ppm: 19%
[2]; [10]
  pest or weed control at 10 ppm: 68%
[3]; [12]
  pest or weed control at 2 ppm: 4%
[3]; [13]
  pest or weed control at 10 ppm: 1%

## CO/N=C(/C(=O)OC)c1ccccc1COc1ccccc1C [Kresoxim-methyl]
[2]; [23]
  pest or weed control at 0.4 ppm: 2%
[2]; [24]
  pest or weed control at 2 ppm: 14%
[2]; [25]
  pest or weed control at 10 ppm: 88%
[2]; [26]
  pest or weed control at 50 ppm: 100%
[3]; [18]
  pest or weed control at 0.4 ppm: 0%
[3]; [19]
  pest or weed control at 2 ppm: 21%

## Propiconazole
[2]; [23]
  Observed Efficacy: 0%
[2]; [24]
  Observed Efficacy: 19%
[2]; [25]
  Observed Efficacy: 76%
[2]; [26]
  Observed Efficacy: 96%
[3]; [18]
  Observed Efficacy: 0
[3]; [19]
  Observed Efficacy: 0
[3]; [20]
  Observed Efficacy: 38
[3]; [21]
  Observed Efficacy: 74

## OC(c1ccc(Cl)cc1)(c1cncnc1)c1ccccc1Cl (stereo not drawn) [Fenarimol]
[1]; [16]
  pest or weed control at 0.4 ppm: 0%
[1]; [5]
  pest or weed control at 2 ppm: 9%
[1]; [6]
  pest or weed control at 10 ppm: 23%
[1]; [7]
  pest or weed control at 50 ppm: 90%
[2]; [8]
  pest or weed control at 0.4 ppm: 5%
[2]; [9]
  pest or weed control at 2 ppm: 34%
[2]; [10]
  pest or weed control at 10 ppm: 42%
[2]; [17]
  pest or weed control at 50 ppm: 67%
[3]; [12]
  pest or weed control at 2 ppm: 0%
[3]; [13]
  pest or weed control at 10 ppm: 4%

## COc1ccc(C(=CC(=O)N2CCOCC2)c2ccc(Cl)cc2)cc1OC [Dimethomorph]
[1]; [27]
  pest or weed control at 16 ppm: 0%
[1]; [28]
  pest or weed control at 64 ppm: 0%
[1]; [29]
  pest or weed control at 256 ppm: 0%
[2]; [30]
  pest or weed control at 4 ppm: 0%
[2]; [31]
  pest or weed control at 16 ppm: 0%
[2]; [32]
  pest or weed control at 64 ppm: 0%
[2]; [33]
  pest or weed control at 256 ppm: 18%
[4]; Parastagonospora nodorum, 96 h, dose rate 4 ppm, read-out: Observed Efficacy
  pest or weed control at 4 ppm: 1%
[4]; Parastagonospora nodorum, 96 h, dose rate 16 ppm, read-out: Observed Efficacy
  pest or weed control at 16 ppm: 6%
[4]; [34]
  pest or weed control at 64 ppm: 11%
[4]; [35]
  pest or weed control at 256 ppm: 14%

## Quinoxyfen
[1]; Table VII, compound alone, dose rate 4 ppm
  Observed Efficacy: 0%
[1]; Table VII, compound alone, dose rate 16 ppm
  Observed Efficacy: 0%
[1]; Table VII, compound alone, dose rate 64 ppm
  Observed Efficacy: 0%
[1]; Table VII, compound alone, dose rate 256 ppm
  Observed Efficacy: 0%
[2]; [30]
  Observed Efficacy: 90%
[2]; [31]
  Observed Efficacy: 100%
[2]; [32]
  Observed Efficacy: 100%
[2]; [33]
  Observed Efficacy: 100%
[4]; dose rate 16 ppm
  Observed Efficacy: 1%
[4]; dose rate 64 ppm
  Observed Efficacy: 0%
[4]; dose rate 256 ppm
  Observed Efficacy: 18%

## CC(Cc1ccc(C(C)(C)C)cc1)CN1CCCCC1 (stereo not drawn) [Fenpropidin]
[1]; Puccinia recondita, 96 h, Table VII, compound alone, dose rate 4 ppm, read-out: Observed Efficacy
  pest or weed control at 4 ppm: 0%
[1]; [27]
  pest or weed control at 16 ppm: 0%
[1]; [28]
  pest or weed control at 64 ppm: 8%
[1]; [29]
  pest or weed control at 256 ppm: 97%
[2]; [30]
  pest or weed control at 4 ppm: 0%
[2]; [31]
  pest or weed control at 16 ppm: 6%
[2]; [32]
  pest or weed control at 64 ppm: 21%
[2]; [33]
  pest or weed control at 256 ppm: 69%
[4]; [34]
  pest or weed control at 64 ppm: 0%
[4]; [35]
  pest or weed control at 256 ppm: 21%

## S1SSSSSSS1 [Sulfur organic, Sulfur]
[2]; [23]
  pest or weed control at 0.4 ppm: 0%
[2]; [24]
  pest or weed control at 2 ppm: 0%
[2]; [25]
  pest or weed control at 10 ppm: 7%
[2]; [26]
  pest or weed control at 50 ppm: 0%
[3]; [19]
  pest or weed control at 2 ppm: 0%
[3]; [20]
  pest or weed control at 10 ppm: 0%
